Reference: patent US9604987B2, “Synthesis of autophagy inducing compound and the uses thereof” (Hong Kong Baptist University, priority 2012, dated 2017)

Assays:
N2a cells = test: Western blot of autophagy marker LC3-II in N2a cells; format: cell-based, mouse; details: N2a, oxindole alkaloids, 12 hours
Procedure: Native and denatured PAGE and Western blotting analysis. Samples to be run under denaturing conditions were lysed with RIPA lysis buffer (150 mM NaCl, 50 mM Tris-HCl, 0.35% sodium deoxycholate, 1 mM EDTA, 1% NP40, 1 mM PMSF, 5 μg/ml aprotinin, 5 μg/ml leupeptin). Samples for native gels were lysed with detergent-free lysis buffer (50 mM Tris/HCl pH 7.4, 175 mM NaCl, 5 mM EDTA pH 8.0, 1 mM PMSF, 5 μg/ml aprotinin, 5 μg/ml leupeptin), and sheared 5 times through a 28-gauge needle followed by 2 times of sonication for 5 seconds according to previously described protocol. For denaturing, SDS-PAGE was performed using Tris-Glycine SDS running buffer and SDS sample buffer, and for native conditions, native-PAGE was run with detergent-free Tris-Glycine running buffer (BN2007, Invitrogen) and 4× native sample buffer (BN2003, Invitrogen) on a pre-casted native PAGE gel (BN1002BOX, Invitrogen). The proteins on the gels were then transferred to PVDF membrane (RPN303F, GE Healthcare) and processed for immunoblotting. Membranes were blocked with 5% non-fat milk and probed with the appropriate primary and secondary antibodies. The desired bands were visualized using the ECL kit (32106, Pierce). The band density was quantified using the ImageJ program and normalized to that of the control group.
In order to confirm the neuronal autophagy inducing activity of Cory B (its chemical structure is shown in FIG. 1A), mouse neuroblastoma N2a, rat phenochromocytoma PC12 and human neurobastoma SH-SY5Y are treated with different concentrations of Cory B for 24 hours and cell lysates are subjected to western blotting analysis of LC3-II expression which is an autophagy-specific marker.
To confirm that enhancement of autophagy markers by Cory B is due to induction of autophagy rather than blockage of autophagosome maturation, N2a cells are treated with 25 μM Cory B or 30 μM lysosome inhibitor CQ together with Cory B for 12 hours. Cell lysates are subject to western blot analysis. Data are presented as the mean±SEM from 3 independent experiments (***p<0.001, one-way ANOVA for multiple comparison and Tukey's test as post hoc test). Both LC3-II levels and the number of GFP-LC3 puncta in the Cory B and CQ co-treatment group are much higher than in the CQ-alone treatment group (FIG. 2A-D). Meanwhile, Cory B induces GFP-LC3 puncta formation is abolished by treatment of 5 mM autophagy inhibitor 3-MA for 24 hours (FIG. 2C, D). Cells were fixed in 4% paraformaldehyde and analyzed under a confocal microscope. Data are presented as the mean±SEM of one representative experiment from three independent experiments. (***p<0.001, one-way ANOVA for multiple comparison and Tukey's test as post hoc test). […] Thus, Cory B is indeed an autophagy inducer in neuronal cells.
To compare the activities of oxindole alkaloids on autophagy induction, LC3II expression levels in N2a cells after treatment with Corynoxine B (Cory B) (FIG. 8A), Corynoxine (Cory) (FIG. 8B), Rhynchophylline (Rhy) (FIG. 8C) and Isorhynchophylline (IsoRhy) for 12 hours are examined.
In order to examine the pro-autophagic activities of the synthesized Cory B analogues, neuroblastoma 2a, a neuronal cell line, are treated with various concentrations of the analogues for 12 hrs. The cells are then harvested and lysed with RIPA buffer (150 mM NaCl, 50 mM Tris-HCl pH 7.4, 0.35% sodium deoxycholate, 1 mM EDTA, 1% NP40, 1 mM PMSF, 5 μg/ml aprotinin, 5 μg/ml leupeptin). The sample are lysed on ice with occasional vortex for 30 min, and then centrifuged at 14,000 rpm for 15 min at 4° C. The supernatant are collected and denatured at 95° C. in sample buffer for 5 min. The denatured samples are then separated on 15% SDS-PAGE gels and transferred to PVDF membrane. Membranes are then blocked with 5% non-fat milk and probed with appropriate primary and secondary antibodies. The protein signals of LC3II, marker protein of autophagy, are finally visualized with ECL kit and the protein bands density are quantified by ImageJ program. […]

N2a Swedish APP cells = test: APP reduction in N2a Swedish APP cells (western blot); format: cell-based, mouse; details: different concentrations, with or without CQ and 3MA
Procedure: N2a Swedish APP cells are incubated with different concentration of Cory and Cory B in the presence or absence of CQ and 3MA. […] Tg2567 APP mice, 3 months old JNPL P301 Tau mice and WT mice intraperitoneally are administrated with 20 mg/kg/d CoryB.

SMILES | autophagy induction (LC3II expression level) (N2a cells) | full length and CTF APP (N2a Swedish APP cells)
CC[C@@H]1CN2CC[C@@]3(C(=O)Nc4ccccc43)C2C[C@@H]1C(=COC)C(=O)OC (stereo partly shown) [Cory, corynoxine] | significantly activate autophagy | dose-dependently reduce both full length and CTF APP
CC[C@H]1CN2CC[C@]3(C(=O)Nc4ccccc43)[C@@H]2C[C@@H]1/C(=C\OC)C(=O)OC [Rhy, Rhynchophylline, reference compound] | did not show any activity on autophagy induction | –
CC[C@H]1CN2CC[C@@]3(C(=O)Nc4ccccc43)[C@@H]2C[C@@H]1/C(=C\OC)C(=O)OC [IsoRhy, Isorhynchophylline, reference compound] | did not show any activity on autophagy induction | –
